Experimental data: PubChem BioAssay AID1061 (NMMLSC, 2008)
The source made the active and inactive calls. The rule behind the calls is not given here.

biological target: N-formyl peptide receptor 2 (Homo sapiens) (UniProt P25090); assay: FPRL1 antagonists blocking calcium signal, SAR follow-up, cell-based, calcium response, secondary assay (AID 1061); conditions: FPRL1-expressing cells, antagonist mode, at 100 µM, stronger effect = higher value
Sequence (P25090 whole entry, looked up): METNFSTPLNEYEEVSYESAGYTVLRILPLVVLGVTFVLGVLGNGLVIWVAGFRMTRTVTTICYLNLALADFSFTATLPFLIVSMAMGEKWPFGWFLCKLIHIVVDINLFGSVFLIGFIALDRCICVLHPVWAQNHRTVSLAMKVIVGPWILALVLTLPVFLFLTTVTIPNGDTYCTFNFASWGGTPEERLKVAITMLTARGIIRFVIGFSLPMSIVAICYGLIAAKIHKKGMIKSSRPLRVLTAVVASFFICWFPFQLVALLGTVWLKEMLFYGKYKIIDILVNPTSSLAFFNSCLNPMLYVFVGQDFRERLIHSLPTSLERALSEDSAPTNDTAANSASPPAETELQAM

inhibition | Compound
79% | COc1ccc(-c2cn3cccnc3n2)cc1NC(=O)C1CC1
36% (inactive) | CCC(=O)Nc1cc(-c2cn3cccnc3n2)ccc1OC
93% | COc1ccc(-c2cn3cccnc3n2)cc1NC(=O)C(C)C
48% (inactive) | COc1ccc(-c2cc(C(F)(F)F)nc(N3CCN(Cc4ccccc4)CC3)n2)cc1OC
75% | COc1ccc(CC(=O)Nc2cc(-c3cn4cccnc4n3)ccc2OC)cc1
